Square brackets hold non-standard residues; d marks the D form. Peptide text beside a SMILES is read from it. pGlu = O=C1CC[C@@H](C(=O)O)N1
Experiments:
[1] = tested on: mice irradiated with 800R X-rays; experiment: Survival of mice after whole body irradiation with 800R X-rays; format: in vivo, C3H/He mice; conditions: for The number of days and survivals after X-radiation 10 (days) / The number of days and survivals after X-radiation 11 (days) / The number of days and survivals after X-radiation 12 (days) / The number of days and survivals after X-radiation 13 (days) / The number of days and survivals after X-radiation 14 (days) / The number of days and survivals after X-radiation 15 (days) / The number of days and survivals after X-radiation 16 (days) / The number of days and survivals after X-radiation 17 (days) / The number of days and survivals after X-radiation 18 (days) / The number of days and survivals after X-radiation 19 (days) / The number of days and survivals after X-radiation 20 (days) / The number of days and survivals after X-radiation 25 (days) / The number of days and survivals after X-radiation 30 (days): 14 days; for The number of days and survivals after X-radiation 10 (days): day 10, 15 animals used; for The number of days and survivals after X-radiation 11 (days): day 11, 15 animals used; for The number of days and survivals after X-radiation 12 (days): day 12, 15 animals used; for The number of days and survivals after X-radiation 13 (days): day 13, 15 animals used; for The number of days and survivals after X-radiation 14 (days): day 14, 15 animals used; for The number of days and survivals after X-radiation 15 (days): day 15, 15 animals used; for The number of days and survivals after X-radiation 16 (days): day 16, 15 animals used; for The number of days and survivals after X-radiation 17 (days): day 17, 15 animals used; for The number of days and survivals after X-radiation 18 (days): day 18, 15 animals used; for The number of days and survivals after X-radiation 19 (days): day 19, 15 animals used; for The number of days and survivals after X-radiation 20 (days): day 20, 15 animals used; for The number of days and survivals after X-radiation 25 (days): day 25, 15 animals used; for The number of days and survivals after X-radiation 30 (days): day 30, 15 animals used
Experimental: Male, 10 week-old C3H/He mice were used and groups of 10 - 15 animals each were prepared.
The mice were subjected to whole body irradiation for 8 minutes using a X-radiation unit (manufactured by Shimazu Seisaku-sho, Shin-Ai 250 II). These animals received, once per day, subcutaneous administration of 100 µg of FTS·CH₃COOH·2H₂O as used in Example 1 for consecutive 14 days. For a pre-administered group, the administration started two days before the irradiation. For a post-administered group, the first administration was effected immediately after the irradiation. As control groups, one group which received only once subcutaneous administration of 1 KE of Picibanil immediately after the irradiation and another group which received every day administration of physiological saline were prepared.

[2] = Body weight measurement of 600R-irradiated mice; format: in vivo; conditions: for body weight (g) [Mean ± S.D.]: 600R X-ray, 100 µg/day s.c. pre-administration
Experimental: In the same manner as in Experimental Examples 1 and 2, mice were irradiated with X-rays for 6 minutes. For a period of consecutive 14 days from 2 days before irradiation, the animals were subcutaneously administered, once a day, with 100 µg/day of FTS·CH₃COOH·2H₂O as medicament.
The body weight of each experimental group of mice in Experimental Example 3 was measured on consecutive days for observation of changes in weight.

[3] = post-administration 100 µg s.c. once per day, from immediately after irradiation
[4] = pre-administration 100 µg s.c. once per day, from two days before irradiation

## C[C@H](NC(=O)[C@@H]1CCC(=O)N1)C(=O)N[C@@H](CCCCN)C(=O)N[C@@H](CO)C(=O)N[C@@H](CCC(N)=O)C(=O)NCC(=O)NCC(=O)N[C@@H](CO)C(=O)N[C@@H](CC(N)=O)C(=O)O [medicament, pGlu-Ala-Lys-Ser-Gln-Gly-Gly-Ser-Asn] ([pGlu]AKSQGGSN-OH)
[1]; 100 µg s.c. once per day for 14 days, summary of Table 1
  dying of mice due to irradiation: clearly prevents or inhibits the dying of mice due to irradiation
[1]; [3]
  The number of days and survivals after X-radiation 10 (days): 15
  The number of days and survivals after X-radiation 11 (days): 15
  The number of days and survivals after X-radiation 12 (days): 15
  The number of days and survivals after X-radiation 13 (days): 14
  The number of days and survivals after X-radiation 14 (days): 13
  The number of days and survivals after X-radiation 15 (days): 10
  The number of days and survivals after X-radiation 16 (days): 8
  The number of days and survivals after X-radiation 17 (days): 6
  The number of days and survivals after X-radiation 18 (days): 6
  The number of days and survivals after X-radiation 19 (days): 6
  The number of days and survivals after X-radiation 20 (days): 6
  The number of days and survivals after X-radiation 25 (days): 5
  The number of days and survivals after X-radiation 30 (days): 5
[1]; [4]
  The number of days and survivals after X-radiation 10 (days): 15
  The number of days and survivals after X-radiation 11 (days): 15
  The number of days and survivals after X-radiation 12 (days): 15
  The number of days and survivals after X-radiation 13 (days): 15
  The number of days and survivals after X-radiation 14 (days): 15
  The number of days and survivals after X-radiation 15 (days): 14
  The number of days and survivals after X-radiation 16 (days): 13
  The number of days and survivals after X-radiation 17 (days): 11
  The number of days and survivals after X-radiation 18 (days): 11
  The number of days and survivals after X-radiation 19 (days): 11
  The number of days and survivals after X-radiation 20 (days): 9
  The number of days and survivals after X-radiation 25 (days): 9
  The number of days and survivals after X-radiation 30 (days): 9
[2]; 1 day after irradiation
  body weight (g) [Mean ± S.D.]: 27.8±1.5 (15) g
[2]; 3 days after irradiation
  body weight (g) [Mean ± S.D.]: 27.7±1.1 (15) g
[2]; 5 days after irradiation
  body weight (g) [Mean ± S.D.]: 27.9±1.1 (15) g
[2]; 7 days after irradiation
  body weight (g) [Mean ± S.D.]: 28.8±1.2 (10) g
[2]; 9 days after irradiation
  body weight (g) [Mean ± S.D.]: 29.8±1.0 (10) g
[2]; 11 days after irradiation
  body weight (g) [Mean ± S.D.]: 30.2±0.9 (10) g
[2]; 13 days after irradiation
  body weight (g) [Mean ± S.D.]: 29.6±0.7 (10) g
[2]; 15 days after irradiation
  body weight (g) [Mean ± S.D.]: 28.3±0.8 (10) g
[2]; 17 days after irradiation
  body weight (g) [Mean ± S.D.]: 28.2±1.0 (10) g
[2]; 19 days after irradiation
  body weight (g) [Mean ± S.D.]: 29.1±0.8 (10) g
[2]; 29 days after irradiation
  body weight (g) [Mean ± S.D.]: 28.5±1.4 (10) g
[2]; 600R X-rays, summary of Table 5
  body weight versus control group: evidently weighed more than the control group

— patent EP0377044B1, “PROTECTIVE AGENT FOR RADIATION HAZARD” (MITSUI TOATSU CHEMICALS, Inc., priority 1988, dated 1989)
